Where a SMILES comes first, the peptide text is derived from it. Bridges are numbered along the chain shown (N, C = ends). [ ]: non-standard residue; d: D form. The star is where a group is joined. hPhe(3-Cl-4-CF3) = N[C@@H](CCc1ccc(C(F)(F)F)c(Cl)c1)C(=O)O; NPrPhe(4-CF3) = CCCN[C@@H](Cc1ccc(C(F)(F)F)cc1)C(=O)O; NMeGly(cPent) = CN[C@H](C(=O)O)C1CCCC1; Hyp = O=C(O)[C@@H]1C[C@@H](O)CN1; NMeD = CN[C@@H](CC(=O)O)C(=O)O; NMeL = CN[C@@H](CC(C)C)C(=O)O; Morpholide = C1CN(*)CCO1; NMeA = CN[C@@H](C)C(=O)O; Aze = O=C(O)[C@@H]1CCN1; Ac4c = NC1(C(=O)O)CCC1; Sar = CNCC(=O)O
Legend:
[1] = biological target: GDP-bound HRAS wild-type protein (Homo sapiens, UniProt P01112); test: Binding to HRAS by surface plasmon resonance (SPR), Single Cycle Kinetics
[2] = biological target: GDP-bound NRAS wild-type protein (Homo sapiens, UniProt P01111); test: Binding to NRAS by surface plasmon resonance (SPR), Single Cycle Kinetics
Chain of GDP-bound NRAS wild-type protein (P01111 whole entry): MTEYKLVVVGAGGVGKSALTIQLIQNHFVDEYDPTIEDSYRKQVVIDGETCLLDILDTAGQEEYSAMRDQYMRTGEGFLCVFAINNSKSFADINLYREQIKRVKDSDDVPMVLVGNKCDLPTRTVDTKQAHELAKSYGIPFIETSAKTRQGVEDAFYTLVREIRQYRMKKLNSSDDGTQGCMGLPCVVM

Chain of GDP-bound HRAS wild-type protein (P01112 whole entry): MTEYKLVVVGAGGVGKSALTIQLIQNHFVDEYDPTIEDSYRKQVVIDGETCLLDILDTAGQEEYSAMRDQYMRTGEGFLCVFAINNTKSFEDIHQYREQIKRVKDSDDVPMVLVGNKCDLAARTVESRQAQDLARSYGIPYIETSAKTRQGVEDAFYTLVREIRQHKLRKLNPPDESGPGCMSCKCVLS

Row | SMILES | HRAS/KRAS (ratio of KD value with respect to GDP-bound HRAS wild-type protein to KD value with respect to KRAS) ([1]; SPR) | NRAS/KRAS (ratio of KD value with respect to GDP-bound NRAS wild-type protein to KD value with respect to KRAS) ([2]; SPR) | other results
1 | CC[C@H](C)[C@@H]1NC(=O)[C@H](CC(C)C)N(C)C(=O)C[C@@H](C(=O)N(C)C)N(C)C(=O)[C@H](C2CCCC2)N(C)C(=O)C2(CCCC2)NC(=O)[C@@H]2CCCN2C(=O)[C@H](CCc2ccc(C(F)(F)F)c(Cl)c2)NC(=O)CN(C)C(=O)[C@H](Cc2ccc(F)cc2)N2CCCCC[C@@H](C2=O)N(C)C(=O)CN(C)C1=O [PP0971] |  |  | HRAS/KRAS (ratio of KD value with respect to HRAS to KD value with respect to KRAS) ([1]; KD ratio, GDP-bound HRAS wild-type vs GDP-bound KRAS wild-type, SPR): B (a compound having 3 or more and less than 10 is denoted as B); NRAS/KRAS (ratio of KD value with respect to NRAS to KD value with respect to KRAS) ([2]; KD ratio, GDP-bound NRAS wild-type vs GDP-bound KRAS wild-type, SPR): B (a compound having 3 or more and less than 10 is denoted as B)
2 | CCCN1C(=O)[C@@H]2CCN2C(=O)[C@H](C)N(C)C(=O)[C@H]([C@@H](C)CC)NC(=O)[C@H](CC(C)C)N(C)C(=O)C[C@@H](C(=O)N(C)C)N(C)C(=O)[C@H](C2CCCC2)N(C)C(=O)C2(CCC2)NC(=O)[C@@H]2CCCN2C(=O)[C@H](CCc2ccc(C(F)(F)F)c(Cl)c2)NC(=O)CN(C)C(=O)[C@@H]1Cc1ccc(C(F)(F)F)cc1 [PP0435] ([NMeL]I[NMeA][Aze][NPrPhe(4-CF3)][Sar][hPhe(3-Cl-4-CF3)]P[Ac4c][NMeGly(cPent)][NMeD]-NMe2; lactam N-11) | C (A compound having a KD ratio of 0.1 or more and less than 3 is denoted as C) | C (A compound having a KD ratio of 0.1 or more and less than 3 is denoted as C) | 
3 | CCCN1C(=O)[C@@H]2CCN2C(=O)CN(C)C(=O)[C@H]([C@@H](C)CC)NC(=O)[C@H](CC(C)C)N(C)C(=O)C[C@@H](C(=O)N2CCOCC2)N(C)C(=O)[C@H](C2CCCC2)N(C)C(=O)C2(CCC2)NC(=O)[C@@H]2C[C@@H](OCC)CN2C(=O)[C@H](CCc2ccc(C(F)(F)F)c(Cl)c2)NC(=O)CN(C)C(=O)[C@@H]1Cc1ccc(C(F)(F)F)cc1 [PP0411] ([NMeL]I[Sar][Aze][NPrPhe(4-CF3)][Sar][hPhe(3-Cl-4-CF3)][Hyp](Et)[Ac4c][NMeGly(cPent)][NMeD]-Morpholide; lactam N-11) | C (A compound having a KD ratio of 0.1 or more and less than 3 is denoted as C) | C (A compound having a KD ratio of 0.1 or more and less than 3 is denoted as C) | 
4 | CC[C@H](C)[C@@H]1NC(=O)[C@H](CC(C)C)N(C)C(=O)C[C@@H](C(=O)N2CCOCC2)N(C)C(=O)[C@H](C2CCCC2)N(C)C(=O)C2(CCCC2)NC(=O)[C@@H]2CC(=O)CN2C(=O)[C@H](CCc2cc(F)c(C(F)(F)F)c(F)c2)NC(=O)CN(C)C(=O)[C@H](Cc2ccc(C(F)(F)F)cc2)N2CCCC[C@@H](C2=O)N(C)C(=O)CN(C)C1=O [PP0555] | B (a compound having 3 or more and less than 10 is denoted as B) | B (a compound having 3 or more and less than 10 is denoted as B) | 
5 | CCC[C@H]1C(=O)N[C@@H]([C@@H](C)CC)C(=O)N(C)CC(=O)N(C)[C@H]2C/C=C\CCN(C2=O)[C@@H](Cc2ccc(C(F)(F)F)cc2)C(=O)N(C)CC(=O)N[C@@H](CCc2ccc(C(F)(F)F)c(OC)c2)C(=O)N2CCCCC[C@H]2C(=O)NC2(CC(C)(C)C2)C(=O)N(C)[C@@H](C(CC)CC)C(=O)N(C)[C@H](C(=O)N(C)C)CC(=O)N1C [PP2968] |  |  | HRAS/KRAS (ratio of KD value with respect to GDP-bound HRAS wild-type protein to KD value with respect to KRAS) ([1]; class symbols): A (a compound having 10 or more and less than 20 is denoted as A); NRAS/KRAS (ratio of KD value with respect to GDP-bound NRAS wild-type protein to KD value with respect to KRAS) ([2]; class symbols): AA (a compound having 20 or more is denoted as AA)

Source: US20250230193A1, “CYCLIC COMPOUND HAVING SELECTIVE KRAS INHIBITORY EFFECT ON HRAS AND NRAS” (CHUGAI SEIYAKU KABUSHIKI KAISHA, priority 2022, published 2025)
